Assay [1] has as its target Mitochondrial respiratory complex II (Mus musculus, UniProt Q8K2B3+Q9CQA3+Q9CXV1+Q9CZB0). The assay can be described thus: Complex II inhibition assay. In kind it is biochemical. As to conditions: mouse liver mitochondria, mean ±SD of n = 4; for inhibition at 100 µM: read-out: % Inhibition CII (100 μM), 100 μM.
Assay [2] concerns low tumorigenic human endothelial kidney (HEK293) cells. The assay can be described thus: MTS cytotoxicity assay in HEK293 cells. Type of assay: cell-based. As to conditions: read-out: HEK293 IC50.
The test system of assay [3] is TNBC MDA-MB-468 cells. Briefly: MTS cytotoxicity assay in MDA-MB-468 cells. As to conditions: for SI (Selectivity Index): MDA-MB-468 over HEK293 cells; for IC50: read-out: MDA-MB-468 IC50, 72 hours, mean ±SD of n=3. In kind it is cell-based. (Tetrazolium dyes change colour on reduction, which living cells bring about.)
Assay [4] deals with 22Rv1 prostate cancer cells. The assay can be described thus: MTS cytotoxicity assay in 22Rv1 prostate cancer cells. As to conditions: 100 μM, 48 hr treatment, MTS. Type of assay: cell-based.

Like-named read-outs stand apart in the source and are kept apart here.

A word on the inhibition: it is how much of the control response was suppressed. The IC50 is the concentration needed to halve the response being measured.

Chain of Mitochondrial respiratory complex II (Q8K2B3 43-664): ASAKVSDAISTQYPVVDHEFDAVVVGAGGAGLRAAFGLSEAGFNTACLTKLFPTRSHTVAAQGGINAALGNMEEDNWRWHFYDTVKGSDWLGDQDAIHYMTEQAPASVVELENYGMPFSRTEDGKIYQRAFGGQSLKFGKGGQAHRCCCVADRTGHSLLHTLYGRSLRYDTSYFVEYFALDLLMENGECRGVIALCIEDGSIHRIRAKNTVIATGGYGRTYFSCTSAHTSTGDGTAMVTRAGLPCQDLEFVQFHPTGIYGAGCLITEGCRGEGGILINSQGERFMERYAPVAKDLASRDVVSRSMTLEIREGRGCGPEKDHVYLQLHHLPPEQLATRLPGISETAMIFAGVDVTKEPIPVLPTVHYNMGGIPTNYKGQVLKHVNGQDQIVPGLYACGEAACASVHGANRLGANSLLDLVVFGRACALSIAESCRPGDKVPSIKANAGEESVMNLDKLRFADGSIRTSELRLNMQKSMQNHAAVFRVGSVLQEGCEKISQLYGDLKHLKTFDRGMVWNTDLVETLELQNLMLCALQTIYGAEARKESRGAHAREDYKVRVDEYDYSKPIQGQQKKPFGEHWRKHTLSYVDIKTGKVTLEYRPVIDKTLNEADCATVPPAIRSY
Chain of Mitochondrial respiratory complex II (Q9CQA3 31-282): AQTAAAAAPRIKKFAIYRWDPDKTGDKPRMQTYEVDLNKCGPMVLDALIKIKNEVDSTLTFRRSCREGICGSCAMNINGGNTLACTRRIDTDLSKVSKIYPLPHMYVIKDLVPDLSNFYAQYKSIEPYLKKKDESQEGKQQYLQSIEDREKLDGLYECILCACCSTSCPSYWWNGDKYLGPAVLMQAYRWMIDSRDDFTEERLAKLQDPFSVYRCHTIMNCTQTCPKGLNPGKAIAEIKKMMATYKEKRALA
Chain of Mitochondrial respiratory complex II (Q9CZB0 30-169): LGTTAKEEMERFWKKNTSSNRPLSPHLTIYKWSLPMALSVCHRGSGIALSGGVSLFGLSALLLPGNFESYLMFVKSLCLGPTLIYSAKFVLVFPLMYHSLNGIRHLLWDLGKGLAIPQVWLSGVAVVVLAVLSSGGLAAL
Chain of Mitochondrial respiratory complex II (Q9CXV1 57-159): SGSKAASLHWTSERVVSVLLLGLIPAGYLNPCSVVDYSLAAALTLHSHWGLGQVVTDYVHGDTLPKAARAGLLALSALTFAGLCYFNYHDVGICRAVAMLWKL

Regarding `O=S1(=O)N=C(NCCc2ccc(F)cc2)Nc2ccc(Br)cc21` [Compound 33c, 7-Bromo-3-((4-fluorophenethyl)amino)-4H-benzo[e][1,2,4]thiadiazine 1,1-dioxide], the inhibition at 100 µM in assay [1] came to 45 ± 17.1%. In assay [2] (Homo sapiens, HEK293, 72 h), the IC50 came to 48.7 ± 12 µM. Further, the “SI (Selectivity Index)” value in assay [3] is 2.42.

With `O=S1(=O)N=C(NCc2ccc(Cl)cc2)Nc2ccc(Br)cc21` [Compound 16c, 7-Bromo-3-((4-chlorobenzyl)amino)-4H-benzo[e][1,2,4]thiadiazine 1,1-dioxide dioxide], the “% Inhibition CII (100 μM)” value in assay [1] was found to be 45 ±5.6%. The IC50 in assay [2] (72 hours, mean ±SD of n=3) was 43.1 ± 3.2 µM; in assay [3] it was 12.5 ± 0.3 µM.

For `O=S1(=O)N=C(NCCc2ccccc2)Nc2ccc(Br)cc21` [Compound 18c, 7-Bromo-3-(phenethylamino)-4H-benzo[e][1,2,4]thiadiazine 1,1-dioxide], in assay [1], the inhibition at 100 µM was found to be 37 ± 4.7%. The IC50 in assay [2] (Homo sapiens, HEK293, 72 h) was found to be 63.1 ± 1.8 µM. In addition, the “SI (Selectivity Index)” value in assay [3] was 3.4.

Turning to `COc1ccccc1CNC1=NS(=O)(=O)c2cc(F)ccc2N1` [Compound 26a, 7-Fluoro-3-((2-methoxybenzyl)amino)-4H-benzo[e][1,2,4]thiadiazine 1,1-dioxide], the inhibition at 100 µM in assay [1] is 27 ± 5.6%. The IC50 in assay [2] (Homo sapiens, HEK293, 72 h) came out at 47.6 ± 2 µM. Besides, the “SI (Selectivity Index)” value in assay [3] came to 3.03.

As for `O=S1(=O)N=C(NCCc2c[nH]c3ccccc23)Nc2ccc(F)cc21` [Compound 36a, 3-((2-(1H-indol-3-yl)ethyl)amino)-7-fluoro-4H-benzo[e][1,2,4]thiadiazine 1,1-dioxide], in assay [4], the “reduction of 22Rv1 cell viability” value was determined as 30%. Besides, the inhibition at 100 µM in assay [1] worked out at 17 ± 8.2%.

Turning to `O=S1(=O)N=C(NCc2ccc(OC(F)(F)F)cc2)Nc2ccccc21` [Compound 30d, 3-((4-(Trifluoromethoxy)benzyl)amino)-4H-benzo[e][1,2,4]thiadiazine 1,1-dioxide], the “reduction of 22Rv1 cell viability” value in assay [4] was “approximately 30%”. In addition, the inhibition at 100 µM in assay [1] worked out at 7 ± 6.2%.

For the compound `COc1ccccc1CNC1=NS(=O)(=O)c2cc(Br)ccc2N1` [Compound 26c, 7-Bromo-3-((2-methoxybenzyl)amino)-4H-benzo[e][1,2,4]thiadiazine 1,1-dioxide], in assay [1], the inhibition at 100 µM came out at 44 ± 12.3%. Further, the IC50 in assay [2] (Homo sapiens, HEK293, 72 h) is 54.4 ± 4.2 µM. For the same compound, the “SI (Selectivity Index)” value in assay [3] is listed as 4.

For `C=CCNC1=NS(=O)(=O)c2cc(F)ccc2N1` [Compound 32a, 3-(Allylamino)-7-fluoro-4H-benzo[e][1,2,4]thiadiazine 1,1-dioxide], the “reduction of 22Rv1 cell viability” value in assay [4] was 24%. The inhibition at 100 µM in assay [1] was 38 ± 7.8%.

Take `O=S1(=O)N=C(NCCc2c[nH]c3ccccc23)Nc2cc(Cl)ccc21` [Compound 36b, 3-((2-(1H-indol-3-yl)ethyl)amino)-6-chloro-4H-benzo[e][1,2,4]thiadiazine 1,1-dioxide]: the inhibition at 100 µM in assay [1] was 25 ± 19%. Besides, the IC50 in assay [2] (Homo sapiens, HEK293, 72 h) was determined as 41.3 ± 5.2 µM. Besides, the “SI (Selectivity Index)” value in assay [3] was 2.66.

`O=S1(=O)N=C(NC2CCCC2)Nc2cc(Cl)ccc21` [Compound 22b, 6-Chloro-3-(cyclopentylamino)-4H-benzo[e][1,2,4]thiadiazine 1,1-dioxide]: in assay [4], the “reduction of 22Rv1 cell viability” value was determined as 34%.

`CSC1=NS(=O)(=O)c2cc(F)ccc2N1C` [Compound 42a, 7-Fluoro-4-methyl-3-(methylthio)-4H-benzo[e][1,2,4]thiadiazine 1,1-dioxide]: the inhibition at 100 µM in assay [1] stood at 6 ± 13.4%.

As for `Nc1ccc(CNC2=NS(=O)(=O)c3cc(Br)ccc3N2)cc1` [Compound 31c, 3-((4-Aminobenzyl)amino)-7-bromo-4H-benzo[e][1,2,4]thiadiazine 1,1-dioxide], in assay [1], the inhibition at 100 µM was determined as 9 ± 6%.

As to `COc1ccc(CCNC2=NS(=O)(=O)c3cc(F)ccc3N2)cc1` [Compound 39a, 7-Fluoro-3-((4-methoxyphenethyl)amino)-4H-benzo[e][1,2,4]thiadiazine 1,1-dioxide], the inhibition at 100 µM in assay [1] is 18 ± 6.2%. Also, the IC50 in assay [2] (Homo sapiens, HEK293, 72 h) worked out at 123 ± 21.4 µM. Moreover, in assay [3], the “SI (Selectivity Index)” value was 3.27.

Consider `CSC1=NS(=O)(=O)c2ccccc2N1` [Compound 13d, 3-(Methylthio)-4H-benzo[e][1,2,4]thiadiazine 1,1-dioxide], for which the inhibition at 100 µM in assay [1] turned out to be 4 ± 5.5%.

In the case of `O=S1(=O)N=C(NCc2ccccc2)Nc2ccc(F)cc21` [Compound 21a, 3-(Benzylamino)-7-fluoro-4H-benzo[e][1,2,4]thiadiazine 1,1-dioxide], the inhibition at 100 µM in assay [1] turned out to be 0%.

For the compound `O=S1(=O)N=C(NCCCc2ccccc2)Nc2ccc(F)cc21` [Compound 23a, 7-Fluoro-3-((3-phenylpropyl)amino)-4H-benzo[e][1,2,4]thiadiazine 1,1-dioxide], in assay [1], the inhibition at 100 µM worked out at 14 ± 10.4%. Also, the concentration for half-maximal inhibition (IC50) in assay [2] (Homo sapiens, HEK293, 72 h) was determined as 181 ± 7.3 µM. Moreover, the “SI (Selectivity Index)” value in assay [3] is listed as 3.12.

For `O=S1(=O)N=C(NCc2ccc(C(F)(F)F)cc2)Nc2ccc(F)cc21` [Compound 25a, 7-Fluoro-3-((4-(trifluoromethyl)benzyl)amino)-4H-benzo[e][1,2,4]thiadiazine 1,1-dioxide], in assay [1], the inhibition at 100 µM came to 6 ± 15.7%.

For `O=S1(=O)N=C(NCCc2ccccc2)Nc2cc(Cl)ccc21` [Compound 18b, 6-Chloro-3-(phenethylamino)-4H-benzo[e][1,2,4]thiadiazine 1,1-dioxide], the inhibition at 100 µM in assay [1] was found to be 19 ± 22.6%.

As for `O=S1(=O)NC(=S)Nc2ccccc21` [Compound 12d, 2H-benzo[e][1,2,4]thiadiazine-3(4H)-thione 1,1-dioxide], in assay [1], the inhibition at 100 µM came to 2 ± 5.8%.

As to `COc1ccc(CCNC2=NS(=O)(=O)c3cc(Br)ccc3N2)cc1` [Compound 34c, 7-Bromo-3-((4-methoxyphenethyl)amino)-4H-benzo[e][1,2,4]thiadiazine 1,1-dioxide], the inhibition at 100 µM in assay [1] was found to be 17 ± 3.3%.

As for `CC(C)NC1=NS(=O)(=O)c2ccccc2N1` [Compound 14d, 3-(Isopropylamino)-4H-benzo[e][1,2,4]thiadiazine 1,1-dioxide], in assay [1], the inhibition at 100 µM was 0%.

As for `O=S1(=O)N=C(NCc2ccc(F)cc2)Nc2ccccc21` [Compound 17d, 3-((4-Fluorobenzyl)amino)-4H-benzo[e][1,2,4]thiadiazine 1,1-dioxide], the inhibition at 100 µM in assay [1] is 7 ± 9.9%.

For `O=S1(=O)N=C(NCc2ccccc2C(F)(F)F)Nc2ccc(Br)cc21` [Compound 35c, 7-Bromo-3-((2-(trifluoromethyl)benzyl)amino)-4H-benzo[e][1,2,4]thiadiazine 1,1-dioxide], the inhibition at 100 µM in assay [1] was 29 ± 5.9%.

Take `O=S1(=O)N=C(NCc2ccc(C(F)(F)F)cc2)Nc2cc(Cl)ccc21` [Compound 25b, 6-Chloro-3-((4-(trifluoromethyl)benzyl)amino)-4Hbenzo[e][1,2,4]thia-d iazine 1,1-dioxide]: in assay [1], the “% Inhibition CII (100 μM)” value stood at 19 ±10.1%. Also, the IC50 in assay [3] is 25.1 ± 3.8 µM.

As for `CCNC1=NS(=O)(=O)c2ccccc2N1` [Compound 19d, 3-(Ethylamino)-4H-benzo[e][1,2,4]thiadiazine 1,1-dioxide], the inhibition at 100 µM in assay [1] came to 0%.

As for `CC(C)NC1=NS(=O)(=O)c2ccccc2N1C` [Compound 43d, 3-(Isopropylamino)-4-methyl-4H-benzo[e][1,2,4]thiadiazine 1,1-dioxide], the inhibition at 100 µM in assay [1] was 0%.

Consider `O=S1(=O)N=C(NCCc2ccc(Cl)cc2)Nc2ccc(F)cc21` [Compound 37a, 3-((4-Chlorophenethyl)amino)-7-fluoro-4H-benzo[e][1,2,4]thiadiazine 1,1-dioxide], for which the inhibition at 100 µM in assay [1] was 34 ± 18.4%.

Turning to `O=c1[nH]cc(F)c(=O)[nH]1` [5-Fluorouracil, reference compound], in assay [2] (Homo sapiens, HEK293, 72 h), the IC50 stood at 7.06 ± 0.8 µM. Moreover, the “SI (Selectivity Index)” value was determined as 1.03 in assay [3] and 1 in assay [3] (listed as 5-fluorouracil).

As to `O=S1(=O)N=C(NCc2ccc(SC(F)(F)F)cc2)Nc2ccc(F)cc21` [Compound 38a, 7-Fluoro-3-((4-((trifluoromethyl)thio)benzyl)amino)-4H-benzo[e] [1,2,4]thiadiazine 1,1-dioxide], in assay [1], the inhibition at 100 µM came out at 23 ± 12.3%.

Turning to `CC(C)NC1=NS(=O)(=O)c2cc(Br)ccc2N1` [Compound 14c, 7-Bromo-3-isopropylamino-4H-1,2,4-benzothiadiazine 1,1-dioxide], the inhibition at 100 µM in assay [1] was 0%.

Take `CC(C)C(C)NC1=NS(=O)(=O)c2cc(Br)ccc2N1` (stereo not drawn) [Compound 15c, 7-Bromo-3-((3-methylbutan-2-yl)amino)-4Hbenzo[e][1,2,4]thiadiazine 1,1-dioxide]: in assay [1], the inhibition at 100 µM was found to be 19 ± 10.4%. Moreover, the IC50 in assay [2] (Homo sapiens, HEK293, 72 h) was 35.7 ± 1.6 µM. Further, the “SI (Selectivity Index)” value in assay [3] is 1.75.

With `COc1ccc(CNC2=NS(=O)(=O)c3ccccc3N2)cc1` [Compound 20d, 3-((4-Methoxybenzyl)amino)-4H-benzo[e][1,2,4]thiadiazine 1,1-dioxide], in assay [1], the inhibition at 100 µM was 0%.

On to `O=S1(=O)N=C(NCc2ccc(Cl)cc2)Nc2cc(Cl)ccc21` [Compound 16b, 6-Chloro-3-((4-chlorobenzyl)amino)-4H-benzo[e][1,2,4]thiadiazine 1,1-dioxide], for which the “reduction of 22Rv1 cell viability” value in assay [4] was 10%.

Consider `O=S1(=O)N=C(NC2CCCC2)Nc2ccc(F)cc21` [Compound 22a, 7-Fluoro-3-(cyclopentylamino)-4H-benzo[e][1,2,4]thiadiazine 1,1-dioxide], for which the inhibition at 100 µM in assay [1] came out at 1 ± 4.7%.

For the compound `C=CCNC1=NS(=O)(=O)c2ccccc2N1` [Compound 32d, 3-(Allylamino)-4H-benzo[e][1,2,4]thiadiazine 1,1-dioxide], the inhibition at 100 µM in assay [1] turned out to be 2 ± 12.3%.

In the case of `Cc1ccc(CNC2=NS(=O)(=O)c3cc(F)ccc3N2)cc1` [Compound 27a, 7-Fluoro-3-((4-methylbenzyl)amino)-4H-benzo[e][1,2,4]thiadiazine 1,1-dioxide], in assay [1], the inhibition at 100 µM turned out to be 23 ± 9.9%.
